From US12629374B2, “Antimalarial agents” (Merck Sharp & Dohme LLC, priority 2020, dated 2026)
Like-named read-outs stand apart in the source and are kept apart here.

Test system: ring stage parasites
Test: Parasite growth potency assay, 72 hours, LDH readout
Format: cell-based
Conditions: parasite growth measured by LDH assay after 72 hours at 37° C., 0.7% rings, 2% haematocrit, read-out: EC50
In short: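 Parasite growth was quantified by LDH assay after a −80 °C freeze-thaw. Before that, compound was incubated for 72 h at 37 °C under humidified gas with ring-stage cultures adjusted to 0.7% parasitemia and 2% haematocrit in serum- and albumax-supplemented RPMI-Hepes.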

Compound | EC50 (72 h) [nM] | EC50 (trifluoroacetate) [nM]
CCC[C@H](c1cccc(C(=O)N[C@@H]2CC3(CCC3)Oc3ccccc32)c1)N1C(=N)NC(CC)(CC)CC1=O (stereo in doubt) [Example 212A, [4,4-diethyl-6-oxo-1-[(1R)-1-[3-[[(4S)-spiro[chromane-2,1′-cyclobutane]-4-yl]carbamoyl]phenyl]butyl]hexahydropyrimidin-2-ylidene]ammonium; 2,2,2-trifluoroacetate] | 8 | 
CCC[C@H](c1cccc(C(=O)N[C@H]2CC3(CCC3)Oc3ccccc32)c1)N1C(=N)NC(CC)(CC)CC1=O (stereo in doubt) [Example 212B, [4,4-diethyl-6-oxo-1-[(1R)-1-[3-[[(4R)-spiro[chromane-2,1′-cyclobutane]-4-yl]carbamoyl]phenyl]butyl]hexahydropyrimidin-2-ylidene]ammonium; 2,2,2-trifluoroacetate] | 0.9 | 
C#CCC[C@@H](c1cccc(C(=O)N[C@@H]2CC3(CCC3)Oc3ccccc32)c1)N1C(=N)NC(CC)(CC)CC1=O (stereo in doubt) [Example 213, [4,4-diethyl-6-oxo-1-[(S)-1-[3-[[(4R)-spiro[chromane-2,1′-cyclobutane]-4-yl]carbamoyl]phenyl]pent-4-ynyl]hexahydropyrimidin-2-ylidene]ammonium; 2,2,2-trifluoroacetate] |  | 28.6
CCC1(CC)CC(=O)N(Cc2cccc(C(=O)N[C@H]3CCOc4ccc(Cl)cc43)c2)C(=N)N1 (stereo in doubt) [Example 215B, N-(6-chlorochroman-4-yl)-3-[(4,4-diethyl-2-imino-6-oxo-hexahydropyrimidin-1-yl)methyl]benzamide] | 3.7 | 
CCC1(CC)CC(=O)N(Cc2cccc(C(=O)N[C@@H]3c4ccccc4OCC3(C)C)c2)C(=N)N1 (stereo in doubt) [Example 216, 3-[(4,4-diethyl-2-imino-6-oxo-hexahydropyrimidin-1-yl)methyl]-N-(3,3-dimethylchroman-4-yl)benzamide] | 0.5 | 
CCC1(CC)CC(=O)N(Cc2cccc(C(=O)N[C@H]3CCOc4ccc(C)cc43)c2)C(=N)N1 (stereo in doubt) [Example 217, 3-[(4,4-diethyl-2-imino-6-oxo-hexahydropyrimidin-1-yl)methyl]-N-(6-methylchroman-4-yl)benzamide] | 10 | 
CCC1(CC)CC(=O)N(Cc2cccc(C(=O)N[C@H]3CC(c4ccccc4)Oc4ccccc43)c2)C(=N)N1 (stereo in doubt) [Example 218A, [4,4-diethyl-6-oxo-1-[[3-[(2-phenylchroman-4-yl)carbamoyl]phenyl]methyl]hexa-hydropyrimidin-2-ylidene]ammonium; 2,2,2-trifluoroacetate] |  | 55
CCC1(CC)CC(=O)N(Cc2cccc(C(=O)N[C@H]3CC(c4ccccc4)Oc4ccccc43)c2)C(=N)N1 (stereo in doubt) [Example 218B, [4,4-diethyl-6-oxo-1-[[3-[(2-phenylchroman-4-yl)carbamoyl]phenyl]methyl]hexa-hydropyrimidin-2-ylidene]ammonium; 2,2,2-trifluoroacetate] |  | 1.1
CCC1(CC)CC(=O)N(Cc2cccc(C(=O)N[C@H]3CCOc4ccc(Br)cc43)c2)C(=N)N1 (stereo in doubt) [Example 219, [1-[[3-[(6-bromochroman-4-yl)carbamoyl]phenyl]methyl]-4,4-diethyl-6-oxo-hexahydropyrimidin-2-ylidene]ammonium; 2,2,2-trifluoroacetate] | 6.6 | 
CCC1(CC)CC(=O)N([C@H](CCOC)c2cc(F)cc(C(=O)NC3CCCOc4ccccc43)c2)C(=N)N1 (stereo in doubt) [Example 220, [4,4-diethyl-1-[1-[3-fluoro-5-(2,3,4,5-tetrahydro-1-benzoxepin-5-ylcarbamoyl)phenyl]-3-methoxy-propyl]-6-oxo-hexahydropyrimidin-2-ylidene]ammonium; 2,2,2-trifluoroacetate] | 2.4 | 
C#CCCC(c1cccc(C(=O)N[C@@H]2c3ccccc3C[C@H]2O)c1)N1C(=N)NC(CC)(CC)CC1=O (stereo in doubt) [Example 221, 3-[(1S)-1-(4,4-diethyl-2-imino-6-oxo-hexahydropyrimidin-1-yl)pent-4-ynyl]-N-[(1R,2R)-2-hydroxyindan-1-yl]benzamide] | 35.4 | 
CCC1(CC)CC(=O)N(Cc2cccc(C(=O)N[C@@H]3c4ccccc4OC(C)(C)[C@H]3O)c2)C(=N)N1 [Example 1, 3-((4,4-diethyl-2-imino-6-oxotetrahydropyrimidin-1(2H)-yl)methyl)-N-((3S,4R)-3-hydroxy-2,2-dimethylchroman-4-yl)benzamide] | 0.8 | 
CCC1(CC)CC(=O)N([C@H](CCOC)c2cccc(C(=O)N[C@@H]3c4ccccc4C[C@H]3O)c2)C(=N)N1 [Example 2, 3-((R)-1-(4,4-diethyl-2-imino-6-oxotetrahydropyrimidin-1(2H)-yl)-3-methoxypropyl)-N-((1R,2R)-2-hydroxy-2,3-dihydro-1H-inden-1-yl)benzamide] | 1.3 | 
CC(C)[C@]1(C)CC(=O)N(Cc2cccc(C(=O)N[C@H]3CCOc4ccccc43)c2)C(=N)N1 [Example 3, [(4S)-1-[[3-[[(4S)-chroman-4-yl]carbamoyl]phenyl]methyl]-4-isopropyl-4-methyl-6-oxo-hexahydropyrimidin-2-ylidene]ammonium; 2,2,2-trifluoroacetate] | 6.2 | 
CCC1(CC)CC(=O)N([C@H](c2ccccc2)c2cccc(C(=O)N[C@H]3CCOc4ccccc43)c2)C(=N)N1 [Example 4A, [1-[[3-[[(4S)-chroman-4-yl]carbamoyl]phenyl]-phenyl-methyl]-4,4-diethyl-6-oxo-hexahydropyrimidin-2-ylidene]ammonium; 2,2,2-trifluoroacetate] | 0.4 | 
CCC1(CC)CC(=O)N([C@H](c2ccccc2)c2cccc(C(=O)N[C@@H]3CCOc4ccccc43)c2)C(=N)N1 [Example 4B, [1-[[3-[[(4R)-chroman-4-yl]carbamoyl]phenyl]-phenyl-methyl]-4,4-diethyl-6-oxo-hexahydropyrimidin-2-ylidene]ammonium; 2,2,2-trifluoroacetate] | 35.4 | 
N=C1N[C@@](CC2CC2)(c2ccccc2)CC(=O)N1Cc1cc(F)cc(C(=O)N[C@H]2CCOc3ccccc32)c1 [Example 5A, [(4R)-1-[[3-[[(4S)-chroman-4-yl]carbamoyl]-5-fluoro-phenyl]methyl]-4-(cyclopropylmethyl)-6-oxo-4-phenyl-hexahydropyrimidin-2-ylidene]ammonium; 2,2,2-trifluoroacetate] | 16.2 | 
N=C1N[C@@](CC2CC2)(c2ccccc2)CC(=O)N1Cc1cc(F)cc(C(=O)N[C@@H]2CCOc3ccccc32)c1 [Example 5B, [(4R)-1-[[3-[[(4R)-chroman-4-yl]carbamoyl]-5-fluoro-phenyl]methyl]-4-(cyclopropylmethyl)-6-oxo-4-phenyl-hexahydropyrimidin-2-ylidene]ammonium; 2,2,2-trifluoroacetate] | 57.4 | 
N=C1N[C@@](CC2CC2)(c2ccccc2)CC(=O)N1Cc1cccc(C(=O)N[C@H]2CCOc3ccccc32)c1 [Example 6A, [(4R)-1-[[3-[[(4S)-chroman-4-yl]carbamoyl]phenyl]methyl]-4-(cyclopropylmethyl)-6-oxo-4-phenyl-hexahydropyrimidin-2-ylidene]ammonium; 2,2,2-trifluoroacetate] | 58.8 | 
N=C1N[C@@](CC2CC2)(c2ccccc2)CC(=O)N1Cc1cccc(C(=O)N[C@@H]2CCOc3ccccc32)c1 [Example 6B, [(4R)-1-[[3-[[(4R)-chroman-4-yl]carbamoyl]phenyl]methyl]-4-(cyclopropylmethyl)-6-oxo-4-phenyl-hexahydropyrimidin-2-ylidene]ammonium; 2,2,2-trifluoroacetate] | 83.9 | 
C[C@H](c1cccc(C(=O)N[C@H]2CCOc3ccccc32)c1)N1C(=N)N[C@@](CC2CC2)(c2ccccc2)CC1=O [Example 7, [(4R)-1-[1-[3-[[(4S)-chroman-4-yl]carbamoyl]phenyl]ethyl]-4-(cyclopropylmethyl)-6-oxo-4-phenyl-hexahydropyrimidin-2-ylidene]ammonium; 2,2,2-trifluoroacetate] | 39.2 | 
N=C1N[C@@](CC2CC2)(c2ccccc2)CC(=O)N1[C@H](c1cccnc1)c1cccc(C(=O)N[C@H]2CCOc3ccccc32)c1 [Example 8, [(4R)-1-[[3-[[(4S)-chroman-4-yl]carbamoyl]phenyl]-pyridin-1-ium-3-yl-methyl]-4-(cyclopropylmethyl)-6-oxo-4-phenyl-hexahydropyrimidin-2-ylidene]ammonium; 2,2,2-trifluoroacetate] | 4.2 | 
CC(C)[C@]1(C)CC(=O)N([C@H](c2ccccc2)c2cccc(C(=O)N[C@H]3CCOc4ccccc43)c2)C(=N)N1 [Example 9A, [(4S)-1-[(R)-[3-[[(4S)-chroman-4-yl]carbamoyl]phenyl]-phenyl-methyl]-4-isopropyl-4-methyl-6-oxo-hexahydropyrimidin-2-ylidene]ammonium; 2,2,2-trifluoroacetate] | 0.5 | 
CC(C)[C@]1(C)CC(=O)N([C@H](c2ccccc2)c2cccc(C(=O)N[C@@H]3CCOc4ccccc43)c2)C(=N)N1 [Example 9B, [(4S)-1-[(R)-[3-[[(4R)-chroman-4-yl]carbamoyl]phenyl]-phenyl-methyl]-4-isopropyl-4-methyl-6-oxo-hexahydropyrimidin-2-ylidene]ammonium; 2,2,2-trifluoroacetate] | 19.2 | 
CC(C)[C@]1(C)CC(=O)N(Cc2cccc(C(=O)N[C@@H]3c4ccccc4C[C@H]3O)c2)C(=N)N1 [Example 10, [(4S)-1-[[3-[[(1R,2R)-2-hydroxyindan-1-yl]carbamoyl]phenyl]methyl]-4-isopropyl-4-methyl-6-oxo-hexahydropyrimidin-2-ylidene]ammonium; 2,2,2-trifluoroacetate] | 7.9 | 
CCC1(CC)CC(=O)N(Cc2cccc(C(=O)N[C@H]3CCOc4ccccc43)c2)C(=N)N1 [Example 11, [1-[[3-[[(4S)-chroman-4-yl]carbamoyl]phenyl]methyl]-4,4-diethyl-6-oxo-hexahydropyrimidin-2-ylidene]ammonium; 2,2,2-trifluoroacetate] | 1.5 | 
